In US7335725B2, “Lipopeptides as antibacterial agents” (priority 1999, dated 2008):

What was measured:
S. aureus = experiment: MIC by NCCLS broth microdilution, S. aureus; format: cell-based; details: Mueller-Hinton Broth with 50 mg/L Ca2+, 37° C.
Protocol: (§1) Compounds were dissolved in 100% dimethyl sulfoxide and were diluted to the final reaction concentration (0.1 μg/mL-100 μg/mL) in microbial growth media. In all cases the final concentration of dimethyl sulfoxide incubated with cells is less than or equal to 1%. […] The optical densities (OD) of the bacterial cells, which measures bacterial cell growth and proliferation, were measured using a commercial plate reader. The MIC value is defined as the lowest compound concentration inhibiting growth of the test organism.

E. faecalis = experiment: MIC by NCCLS broth microdilution, E. faecalis; format: cell-based; details: Mueller-Hinton Broth with 50 mg/L Ca2+, 37° C.
Protocol: as §1

**Q.** Which “MIC (μg/ml) S. aureus” value (S. aureus) does the source give for “Boc-protected daptomycin α,β-tridecenoyl amide [Compound 110]” here?
**A.** +++ (the compound has an MIC (μg/ml) of 1 μg/ml or less)

**Q.** What about the “MIC (μg/ml) E. faecalis” value (E. faecalis) of the same substance?
**A.** ++ (an MIC (μg/ml) or an ED50 (mg/kg) of more than 1 μg/ml or 1 mg/kg, respectively, but less than or equal to 10 μg/ml or 10 mg/kg, respectively)
